Entries after “also recorded” stand apart in the source; their conditions may differ. Read-outs that look alike come from different tables or passages of the source.
Tests used:
[1] = NR—Cl crystalline forms, previously identified; cited from earlier work
[2] = Hygroscopicity evaluation at about 75% RH (NaCl saturated aqueous solution), visual powder property and polarized light microscopy; assay type: physicochemical; conditions: for powder property after 1 day / powder property after 7 days / powder property and crystallinity after 30 days: ~75% RH, room temperature (~22° C.); for hygroscopicity compared to NR—Cl crystalline forms: compared to NR—Cl-Form A and NR—Cl-Form B; for powder state for more than one month: environment of 75% RH
Source text: In addition to the thermal stability, the hygroscopicity, the tendency of a solid substance to absorb moisture from the surrounding atmosphere, is another important physicochemical property that needs to be considered during pharmaceutical development, because, like the heat, the moisture may also damage the drug product at a specific storage condition during the period of the drug shelf life. One of the key disadvantages of the nicotinamide riboside chloride products in the market is its poor hygroscopicity. As reported previously, all the three crystalline forms of the nicotinamide riboside chloride deliquesce at the relative humidity (RH) of 70%-80%. As a result, the nicotinamide riboside chloride requires to store in a dry place to avoid absorbing moisture from the air. […] The hygroscopicity assessment can be achieved by placing compounds in a specified relative humidity environment, e.g., ˜75% RH environment established with the sodium chloride saturated aqueous solution.
A Kerr SureTight™ container of 8 oz Clear Glass Wide Mouth Mason Jars with Silver Vacuum Seal Lid was used to secure the closure. An 8 ml opened vial containing sodium chloride (NaCl) saturated aqueous solution (about 75.5% RH at 20° C. and about 75.3% at 25° C. from www.engineeringtoolbox.com/salt-humidity-d_1887.html) was placed in the SureTight container. The 4 ml of opened vials containing about 5 mg of [NR—Cl]2[RSV] cocrystals or NR—Cl crystalline forms were also placed in the same container with the vial of the NaCl saturated aqueous solution. The container was sealed with the seal lid and placed in a room temperature condition (˜22° C.). The powder property was visually observed directly or during shaking the vial. Crystallinity was assessed under a polarized light microscope.

[3] = Chemical decomposition in alcohol suspension; assay type: physicochemical
Source text: Reaction crystallization temperatures and times depend upon targeted crystalline form of the cocrystal of a salt that is to be crystallized, the concentration of the salt and coformer in solution, and the solvent system. It should be noted that the elevated temperature or the long reaction time should be avoided to reduce the possibility of chemical decomposition for the […]. […] Even in room temperature, the nicotinamide riboside chloride starts to decompose after stirring in the alcohol suspension for more than 3 days. The preferred reaction time is less than 24 hours with reaction temperature at around room temperature.

[4] = assay type: physicochemical
Source text: Various solvents are selected based on solubility of starting materials and crystallization methods disclosed herein. […] These differences in solubilities also impact the ratio of the two starting materials. In the disclosed methods to prepare […], a ratio between the nicotinamide riboside chloride salt and resveratrol cofomer from about 2:1 to about 2:2 to prepare [NR—Cl]2[RSV] with a NR—Cl/RSV molar ratio of 2:1.

[5] = Thermal stability by differential scanning calorimetry (DSC); assay type: physicochemical; conditions: for heat of fusion: DSC; for melting/decomposition endotherm peak: heating rate 10° C./minute
Source text: Thermal stability is the stability of a molecule at elevated temperatures, and a molecule with more thermal stability has more resistance to decomposition at elevated temperatures. Thermal stability of a compound is one of the most important pharmaceutical properties that requires to be considered during developing a pharmaceutical or nutraceutical product. […] Differential Scanning calorimetry (DSC) is an analysis technique by measuring the heat change associated with the molecule's thermal events when heated at a constant rate. The temperature and its enthalpy change (usually the heat of fusion) at a specific thermal event recorded from DSC technique could be used to evaluate the thermal stability of an organic molecule directly. […] It is desirable to identify a new crystalline form with a higher melting/decomposition temperature and/or a larger heat of fusion to improve the thermal stability of the nicotinamide riboside drug substance.
DSC analysis was performed on samples prepared according to standard methods using a Q SERIES™ Q2500 DSC calorimeter available from TA INSTRUMENTS® (New Castle, Delaware). A sample (approximately 2 mg) was weighed into an aluminum sample pan and transferred to the DSC. The instrument was purged with nitrogen at 50 mL/min and data collected between 22° C. and 300° C., using a dynamic heating rate of 10° C./minute. Thermal data was analyzed using standard software, e.g., TRIOS from TA INSTRUMENTS®.

Row | Molecule | heat of fusion [1] [J/g] | melting/decomposing temperature [1] [°C] | powder property after 1 day [2] | powder property after 7 days [2] | powder property and crystallinity after 30 days [2] | solubility in EtOH [4] | solubility in IPA [4] | solubility in MeOH [4] | solubility in water [4] | heat of fusion [5] [J/g] | melting/decomposition endotherm peak [5] | hygroscopicity compared to NR—Cl crystalline forms [2] | powder state for more than one month [2] | further results
1 | NC(=O)c1ccc[n+]([C@@H]2O[C@H](CO)[C@@H](O)[C@H]2O)c1.[Cl-] [NR—Cl-Form A, nicotinamide riboside chloride] | 58 | 119 | deliquesced; also recorded: became sticky and could not flow freely | deliquesced | glass-like liquids (amorphous materials) |  |  |  |  |  |  |  |  | 
2 | NC(=O)c1ccc[n+]([C@@H]2O[C@H](CO)[C@@H](O)[C@H]2O)c1.[Cl-] [NR—Cl-Form B, nicotinamide riboside chloride] | 69 | 123 |  |  | glass-like liquids (amorphous materials) |  |  |  |  |  |  |  |  | 
3 | NC(=O)c1ccc[n+]([C@@H]2O[C@H](CO)[C@@H](O)[C@H]2O)c1.[Cl-] [nicotinamide riboside chloride] |  |  |  |  |  | poorly soluble | poorly soluble | soluble | soluble |  |  |  |  | time within which decomposition occurs in alcohol suspension ([3]; elevated temperature above 50° C.): ≤ 1 h; stirring time after which decomposition starts in alcohol suspension ([3]; room temperature): more than 3 days
4 | Oc1ccc(/C=C/c2cc(O)cc(O)c2)cc1 [resveratrol, 3,5,4′-trihydroxy-trans-stilbene] |  |  |  |  |  | soluble | soluble | soluble | poorly soluble |  |  |  |  | 
5 | resveratrol cocrystal of nicotinamide riboside chloride [[NR—Cl]2[RSV]-Form A] |  |  | flowable powders | flowable powders | flowable crystalline powders |  |  |  |  | 100 | about 128 °C | better hygroscopicity | retain as flowable crystalline powders | thermal stability compared to NR—Cl crystalline forms ([5]; from melting/decomposition temperature and heat of fusion): better thermal stability
6 | resveratrol cocrystal of nicotinamide riboside chloride [[NR—Cl]2[RSV]-Form B] |  |  | flowable powders | flowable powders | flowable crystalline powders |  |  |  |  | 97 | about 127 °C | better hygroscopicity | retain as flowable crystalline powders | 
